These compounds were tested on HBV (assay: HepAD38 antiviral assay: reduction of viral product accumulation (virion DNA by qPCR, HBsAg or HBeAg by ELISA)). Details: Hepatitis B virus, 120 h; HepAD38 cells, five days after compound addition; 50% reduction of viral product accumulation relative to no drug controls; read-out: HepAD38 EC50.
Assay type: cell-based
Method: Methods: HepAD38 cells are maintained as previously reported (Ladner et al, Antimicrob. Agents Chemother. 1997, […], 1715). Briefly, cells are passaged upon attaining confluency in DMEM/F12 media in the presence of 10% FBS, Penn/Strep, 250 μg/mL G418, and 1 ug/ml tetracycline. Novel compounds are screened by first washing cells three times with PBS to remove tetracycline, and plating in 96 well plates at 35,000 cells/well. Compounds dissolved in DMSO are then diluted 1:200 into wells containing cells. Five days after compound addition, material is harvested for analysis. For an extended 8 day analysis, cells are plated and treated as described above, but media and compound are refreshed on d2 and d5 post initial treatment.
On harvest day, virion DNA is obtained by lysing with Sidestep Lysis and Stabilization Buffer and then quantified via quantitative real time PCR. Commercially available ELISA kits are used to quantitate the viral proteins HBsAg (Alpco) or HbeAg (US Biological) by following the manufacturer's recommended protocol after diluting samples to match the linear range of their respective assays. Irrespective of readout, compound concentrations that reduce viral product accumulation in the cell lysates or supernatants by 50% relative to no drug controls (EC50) are reported; EC50 ranges are as follows: A<1 μM; B 1-10 μM; C>10 μM.

Row | SMILES | EC50 [nM]
1 | O=S(=O)(c1cc(-c2nc(-c3ccc(Br)c(F)c3)c[nH]2)ccc1Cl)N1CCN(c2ccncc2)CC1 [Example 196] | < 1000
2 | O=S(=O)(c1cc(-c2nc(-c3ccc(F)c(Br)c3)c(F)[nH]2)ccc1Cl)N1CCC(O)CC1 [Example 197] | < 1000
3 | CC(C)(C)OC(=O)N[C@H]1C[C@H](NS(=O)(=O)c2cc(-c3nc(-c4ccc(Br)c(F)c4)c[nH]3)ccc2Cl)C1 [Example 198] | < 1000
4 | CC(C)(C)OC(=O)NCC1CCN(S(=O)(=O)c2cc(-c3nc(-c4ccc(Br)c(F)c4)c[nH]3)ccc2Cl)C1 (centres unmarked) [Example 199] | < 1000
5 | CN(C)CC(=O)NCCCNS(=O)(=O)c1cc(-c2nc(-c3ccc(Br)c(F)c3)c[nH]2)ccc1Cl [Example 200] | 1000 to 10000
6 | COC(=O)NCC(=O)NCCCNS(=O)(=O)c1cc(-c2nc(-c3ccc(Br)c(F)c3)c[nH]2)ccc1Cl [Example 201] | 1000 to 10000
7 | COc1ccc(-c2c[nH]c(-c3ccc(Cl)c(S(=O)(=O)N4CCC(O)CC4)c3)n2)cc1Cl [Example 202] | > 10000
8 | [2H]C([2H])([2H])Oc1cccc(-c2c[nH]c(-c3ccc(Cl)c(S(=O)(=O)N4CCC(O)CC4)c3)n2)c1 [Example 203] | > 10000
9 | [2H]C([2H])([2H])Oc1cc(-c2c[nH]c(-c3ccc(Cl)c(S(=O)(=O)N4CCC(O)CC4)c3)n2)ccc1F [Example 204] | < 1000
10 | O=S(=O)(c1cc(-c2nc(-c3ccc(Br)c(F)c3)c[nH]2)ccc1Cl)N1CCN(c2cc(F)ccn2)CC1 [Example 205] | < 1000
11 | O=C(Nc1ccccc1)N1CCN(S(=O)(=O)c2cc(-c3nc(-c4ccc(Br)c(F)c4)c[nH]3)ccc2Cl)CC1 [Example 206] | > 10000
12 | O=P(O)(O)OC1CCN(S(=O)(=O)c2cc(-c3nc(-c4ccc(F)c(Br)c4)c[nH]3)ccc2Cl)CC1 [Example 207] | 1000 to 10000
13 | C[C@@H]1CN(S(=O)(=O)c2cc(-c3ncc(-c4ccc(Br)c(F)c4)[nH]3)ccc2Cl)CC[C@H]1O [Example 208] | < 1000
14 | CC1CC(O)CCN1S(=O)(=O)c1cc(-c2ncc(-c3ccc(Br)c(F)c3)[nH]2)ccc1Cl (centres unmarked) [Example 209] | < 1000
15 | CC(C)(O)C1CN(S(=O)(=O)c2cc(-c3ncc(-c4ccc(Br)c(F)c4)[nH]3)ccc2Cl)C1 [Example 210] | < 1000
16 | O=S(=O)(N[C@H]1C[C@@H](O)C1)c1cc(-c2ncc(-c3ccc(Br)c(F)c3)[nH]2)ccc1Cl [Example 211] | < 1000
17 | O=S(=O)(N[C@H]1CC[C@H](O)CC1)c1cc(-c2ncc(-c3ccc(Br)c(F)c3)[nH]2)ccc1Cl [Example 212] | < 1000
18 | O=S(=O)(NC[C@H](O)CO)c1cc(-c2ncc(-c3ccc(Br)c(F)c3)[nH]2)ccc1Cl [Example 213] | < 1000
19 | O=S(=O)(NC[C@@H](O)CO)c1cc(-c2ncc(-c3ccc(Br)c(F)c3)[nH]2)ccc1Cl [Example 214] | < 1000
20 | O=S(=O)(NCCCCc1nnn[nH]1)c1cc(-c2nc(-c3ccc(Br)c(F)c3)c[nH]2)ccc1Cl [Example 215] | > 10000
21 | COc1cc(-c2c[nH]c(-c3ccc(Cl)c(S(=O)(=O)N4CCC(O)CC4)c3)n2)ccc1Cl [Example 216] | < 1000

Row | SMILES | EC50 [nM]
22 | [2H]C([2H])([2H])Oc1ccc(-c2c[nH]c(-c3ccc(Cl)c(S(=O)(=O)N4CCC(O)CC4)c3)n2)cc1 [Example 217] | 1000 to 10000
23 | O=S(=O)(c1cc(-c2nc(-c3ccc(Br)c(F)c3)c[nH]2)ccc1Cl)N1CCN(c2ccc(F)cn2)CC1 [Example 219] | < 1000
24 | O=S(=O)(c1cc(-c2nc(-c3ccc(Br)c(F)c3)c[nH]2)ccc1Cl)N1CCC(c2ccccn2)CC1 [Example 220] | < 1000
25 | O=S(=O)(c1cc(-c2nc(-c3ccc(Br)c(F)c3)c[nH]2)ccc1Cl)N1CC=C(c2ccccn2)CC1 [Example 221] | 1000 to 10000
26 | O=S(=O)(c1cc(-c2nc(-c3ccc(Br)c(F)c3)c[nH]2)ccc1Cl)N1CCN(S(=O)(=O)C2CC2)CC1 [Example 222] | > 10000
27 | O=S(=O)(NC1CC(O)C1)c1cc(-c2ncc(-c3ccc(Br)c(F)c3)[nH]2)ccc1Cl (centres unmarked) [Example 223] | 1000 to 10000
28 | CC(C)(O)CNS(=O)(=O)c1cc(-c2ncc(-c3ccc(Br)c(F)c3)[nH]2)ccc1Cl [Example 224] | < 1000
29 | CC(C)(O)CCNS(=O)(=O)c1cc(-c2ncc(-c3ccc(Br)c(F)c3)[nH]2)ccc1Cl [Example 225] | < 1000
30 | O=S(=O)(c1cc(-c2ncc(-c3ccc(Br)c(F)c3)[nH]2)ccc1Cl)N1CCC[C@H](O)C1 [Example 226] | < 1000
31 | O=S(=O)(N[C@H]1CC[C@@H](O)CC1)c1cc(-c2ncc(-c3ccc(Br)c(F)c3)[nH]2)ccc1Cl [Example 227] | < 1000
32 | O=S(=O)(c1cc(-c2ncc(-c3ccc(Br)c(F)c3)[nH]2)ccc1Cl)N1C[C@@H](O)[C@@H](O)C1 [Example 228] | < 1000
33 | O=S(=O)(c1cc(-c2ncc(-c3ccc(Br)c(F)c3)[nH]2)ccc1Cl)N1C[C@@H](O)[C@H](O)C1 [Example 229] | < 1000
34 | O=S(=O)(c1cc(-c2ncc(-c3ccc(Br)c(F)c3)[nH]2)ccc1Cl)N1CC[C@H](O)[C@H](O)C1 [Example 230] | < 1000
35 | O=S(=O)(c1cc(-c2ncc(-c3ccc(Br)c(F)c3)[nH]2)ccc1Cl)N1CC[C@H](O)[C@@H](O)C1 [Example 231] | < 1000
36 | O=S(=O)(c1cc(-c2nc(-c3ccc(Br)c(F)c3)c[nH]2)ccc1Cl)N1CCCC[C@H](O)C1 [Example 232] | < 1000
37 | O=S(=O)(c1cc(-c2nc(-c3ccc(Br)c(F)c3)c[nH]2)ccc1Cl)N1CCCC[C@@H](O)C1 [Example 233] | < 1000
38 | O=S(=O)(c1cc(-c2nc(-c3ccc(Br)c(F)c3)c[nH]2)ccc1Cl)N1CCC[C@@H](O)CC1 [Example 234] | < 1000
39 | O=S(=O)(c1cc(-c2nc(-c3ccc(Br)c(F)c3)c[nH]2)ccc1Cl)N1CCC[C@H](O)CC1 [Example 235] | < 1000
40 | COC(=O)NCCCN(CCCO)S(=O)(=O)c1cc(-c2nc(-c3ccc(Br)c(F)c3)c[nH]2)ccc1Cl [Example 236] | < 1000
41 | O=S(=O)(NCCCNc1ncco1)c1cc(-c2nc(-c3ccc(Br)c(F)c3)c[nH]2)ccc1Cl [Example 237] | < 1000
42 | O=S(=O)(c1cc(-c2nc(-c3ccc(CC(F)(F)F)cc3)c[nH]2)ccc1Cl)N1CCC(O)CC1 [Example 238] | > 10000

Row | SMILES | EC50 [nM]
43 | O=S(=O)(c1cc(-c2nc(-c3cccc(CC(F)(F)F)c3)c[nH]2)ccc1Cl)N1CCC(O)CC1 [Example 239] | > 10000
44 | COC1CCCCC1N1CCN(S(=O)(=O)c2cc(-c3nc(-c4ccc(Br)c(F)c4)c[nH]3)ccc2Cl)CC1 (centres unmarked) [Example 240] | < 1000
45 | COC(=O)NCCCCCCNS(=O)(=O)c1cc(-c2nc(-c3ccc(Br)c(F)c3)c[nH]2)ccc1Cl [Example 241] | < 1000
46 | CC(C)(C)OC(=O)NCCCCCCNS(=O)(=O)c1cc(-c2nc(-c3ccc(Br)c(F)c3)c[nH]2)ccc1Cl [Example 242] | < 1000
47 | O=S(=O)(c1cc(-c2ncc(-c3ccc(Br)c(F)c3)[nH]2)ccc1Cl)N1C[C@@H]2[C@@H](O)[C@@H]2C1 [Example 243] | < 1000
48 | C[C@@H]1CCN(S(=O)(=O)c2cc(-c3nc(-c4ccc(Br)c(F)c4)c[nH]3)ccc2Cl)C[C@@H]1O [Example 244] | < 1000
49 | C[C@H]1CCN(S(=O)(=O)c2cc(-c3nc(-c4ccc(Br)c(F)c4)c[nH]3)ccc2Cl)C[C@@H]1O [Example 245] | < 1000
50 | O=S(=O)(c1cc(-c2ncc(-c3ccc(Br)c(F)c3)[nH]2)ccc1Cl)N1CC[C@@H](O)C1 [Example 247] | > 10000
51 | O=S(=O)(c1cc(-c2nc(-c3ccc(F)c(C(F)F)c3)c[nH]2)ccc1Cl)N1CCC(O)CC1 [Example 248] | > 10000
52 | O=S(=O)(c1cc(-c2nc(-c3ccc(Br)c(F)c3)c[nH]2)ccc1Cl)N1CCN(C2CCCCC2F)CC1 (centres unmarked) [Example 249] | < 1000
53 | O=S(=O)(c1cc(-c2nc(-c3ccc(Br)c(F)c3)c[nH]2)ccc1Cl)N1CCN([C@@H]2CCCC[C@H]2O)CC1 [Example 250] | < 1000
54 | COC(=O)NCCCCCCCNS(=O)(=O)c1cc(-c2nc(-c3ccc(Br)c(F)c3)c[nH]2)ccc1Cl [Example 251] | < 1000
55 | CC(C)(C)OC(=O)NCCCCCCCNS(=O)(=O)c1cc(-c2nc(-c3ccc(Br)c(F)c3)c[nH]2)ccc1Cl [Example 252] | < 1000
56 | O=S(=O)(c1cc(-c2nc(-c3ccc(Br)c(F)c3)c[nH]2)ccc1Cl)N1CC[C@@H](CO)C1 [Example 253] | < 1000
57 | O=S(=O)(c1cc(-c2nc(-c3ccc(Br)c(F)c3)c[nH]2)ccc1Cl)N1CC[C@H](CO)C1 [Example 254] | < 1000
58 | O=S(=O)(c1cc(-c2nc(-c3ccc(Br)c(F)c3)c[nH]2)ccc1Cl)N1CC(O)C(CO)C1 (centres unmarked) [Example 255] | < 1000
59 | O=S(=O)(c1cc(-c2ncc(-c3ccc(Br)c(F)c3)[nH]2)ccc1Cl)N1CCC2(O)CC2C1 (centres unmarked) [Example 256] | < 1000
60 | O=S(=O)(c1cc(-c2ncc(-c3ccc(Br)c(F)c3)[nH]2)ccc1Cl)N1CCC2CC2(O)C1 (centres unmarked) [Example 257] | < 1000
61 | CC1(C)CN(S(=O)(=O)c2cc(-c3ncc(-c4ccc(Br)c(F)c4)[nH]3)ccc2Cl)CCC1O (centres unmarked) [Example 258] | < 1000
62 | O=S(=O)(c1cc(-c2nc(-c3ccc(Br)c(F)c3)c[nH]2)ccc1Cl)N1C[C@H](O)[C@@H](O)C1 [Example 259] | < 1000

Source: patent US10442788B2, “Hepatitis B antiviral agents” (ENANTA PHARMACEUTICALS, INC., priority 2015, dated 2019)
